# Where a SMILES comes first, the peptide text is derived from it. Bridges are numbered along the chain shown (N, C = ends).
# System: sciatic nerve in rats
# Experiment: Compound action potential (CAP) of the sciatic nerve in rats
# Type: in vivo, Sprague-Dawley (SD) rats
# Settings: 20 μL of 30, 100, 300 nM on sciatic nerve; before and after needling; vs negative control group (p<0.05)
# Protocol: Four SPF-grade healthy Sprague-Dawley (SD) rats are randomly selected, half males and half females, weighing 180˜200 g, 6˜8 weeks old. The rats are first acclimatized and fed for 1 week, fasted for 12 h before the experiment, with free access to water.
# Rats weighing between 180 g and 200 g are taken and anesthetized with 7% chloral hydrate solution at a concentration of 0.4 mL/100 g. […] Then, the fully anesthetized rats are placed on the operating table so that their backs are facing upwards and their paws are held in place with a string. The skin and connective tissue of the leg are cut sequentially, and the muscles between the biceps femoris and the gluteus superficialis are bluntly-dissected. […]
# Observations are performed on rats in the polypeptide PPN-01 group and in the negative control drug lidocaine group, and the effect of each concentration of polypeptide PPN-01 on the peak amplitude of the positive and negative phases of the CAP in the sciatic nerve of rats is assessed by the inhibition rate. […]
# Four to six CAPs within 2 min after each recording time period are selected for analysis, and the mean peak amplitude is calculated as the representative CAP peak amplitude and time course for each group, with the peak amplitude of the CAP being the difference between the baseline and the peak CAP.
compound,measurement,value
"CSCC[C@@H]1NC(=O)CNC(=O)[C@H](CCC(=O)O)NC(=O)[C@@H]2CSSC[C@H](NC(=O)[C@H](Cc3ccc(O)cc3)NC(C)=O)C(=O)N[C@@H](CCC(N)=O)C(=O)N[C@@H](CCCCN)C(=O)N[C@@H](Cc3ccccc3)C(=O)N[C@@H](CC(C)C)C(=O)N[C@@H](C)C(=O)N3CCC[C@H]3C(=O)N[C@H]3CSSC[C@H](NC(=O)[C@H](CCC(=O)O)NC1=O)C(=O)N[C@@H](CCCCN)C(=O)N[C@@H](CC(C)C)C(=O)N[C@@H](Cc1c[nH]c4ccccc14)C(=O)N[C@H](C(=O)N[C@@H](CCCCN)C(=O)N[C@@H](CCCCN)C(=O)N[C@@H](CCCCN)C(=O)N[C@@H](CC(C)C)C(=O)N[C@@H](Cc1c[nH]c4ccccc14)C(N)=O)CSSC[C@H](NC(=O)[C@H](CCCCN)NC(=O)[C@H](CCCNC(=N)N)NC(=O)[C@H](CCC(=O)O)NC(=O)[C@H](CO)NC(=O)[C@H](CC(=O)O)NC3=O)C(=O)N2 [PPN-01] (Ac-YCQKFLAPCDSERKCCEGMECKLWCKKKLW-NH2; disulfide 2-16, 9-21, 15-25)",peak amplitude of CAP (positive and negative phases),significantly decreased
